Test results reported in patent US20240158348A1, “HERBICIDAL CYCLIC AMIDES N-SUBSTITUTED WITH A HALOALKYLSULFONYLANILIDE GROUP” (FMC Corporation, priority 2021, published 2024).

What was measured:
Format in all cases: in vivo
[1] = tested on: ryegrass, Italian (Italian ryegrass, Lolium multiflorum); assay: Test C preemergence, Italian ryegrass; conditions: 0 is no effect, 100 is complete control
Summary of the method: (§1)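 Visual injury rating, 0 (no effect) to 100 (complete control), versus untreated controls after 10 or 12 days in the greenhouse. Compounds were formulated in non-phytotoxic solvent plus surfactant and applied either as a directed soil spray at sowing or onto emerged one- to two-leaf plants.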

[2] = tested on: soybean (Glycine max); assay: Test C preemergence, soybean; conditions: 0 is no effect, 100 is complete control
Summary of the method: as §1

[3] = tested on: corn (Zea mays); assay: Test C postemergence, corn; conditions: for Corn plant response rating: visual injury, 0 to 100 scale (0 no effect, 100 complete control); for Plant response rating (0 to 100 scale), Corn: 0 is no effect, 100 is complete control
[4] = tested on: goosegrass (Eleusine indica); assay: Test C postemergence, goosegrass; conditions: for Goosegrass plant response rating: visual injury, 0 to 100 scale (0 no effect, 100 complete control); for Plant response rating (0 to 100 scale), Goosegrass: 0 is no effect, 100 is complete control
Summary of the method: as §1

[5] = tested on: pigweed, palmer (palmer amaranth, Amaranthus palmeri); assay: Test C postemergence, palmer amaranth; conditions: visual injury, 0 to 100 scale (0 no effect, 100 complete control)
Summary of the method: as §1

[6] = tested on: ragweed (common ragweed, Ambrosia artemisiifolia); assay: Test C postemergence, ragweed; conditions: visual injury, 0 to 100 scale (0 no effect, 100 complete control)
Summary of the method: as §1

[7] = tested on: horseweed (Erigeron canadensis); assay: Test C postemergence, horseweed; conditions: for Horseweed plant response rating: visual injury, 0 to 100 scale (0 no effect, 100 complete control); for Plant response rating (0 to 100 scale), Horseweed: 0 is no effect, 100 is complete control
Summary of the method: as §1

[8] = tested on: barnyardgrass (Echinochloa crusgalli); assay: Test D flooded paddy test, barnyardgrass; set-up: key: 0 = no effect, 100 = complete control; conditions: 250 g ai/ha, Flood; applied to paddy water at 2-leaf stage; visual rating after 13 days; scale 0 (no effect) to 100 (complete control)
Summary of the method: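 Pots holding 2-leaf-stage plants were flooded 3 cm deep and dosed via the water, which stayed at that level. After 13 greenhouse days, injury was scored visually against untreated controls, 0 (none) to 100 (complete control); a dash marks no test result.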

| Structure (SMILES) | Plant response rating (0 to 100 scale), Ryegrass, Italian ([1]; 31 g ai/ha Preemergence) | Plant response rating (0 to 100 scale), Ryegrass, Italian ([1]; 125 g ai/ha Preemergence) | Plant response rating (0 to 100 scale), Soybean ([2]; 31 g ai/ha Preemergence) | Plant response rating (0 to 100 scale), Soybean ([2]; 125 g ai/ha Preemergence) | Corn plant response rating ([3]; 31 g ai/ha Postemergence) | Plant response rating (0 to 100 scale), Corn ([3]; 125 g ai/ha Postemergence) | Goosegrass plant response rating ([4]; 31 g ai/ha Postemergence) | Plant response rating (0 to 100 scale), Goosegrass ([4]; 125 g ai/ha Postemergence) | Pigweed, Palmer plant response rating ([5]; 31 g ai/ha Postemergence) | Pigweed, Palmer plant response rating ([5]; 125 g ai/ha Postemergence) | Ragweed plant response rating ([6]; 31 g ai/ha Postemergence) | Ragweed plant response rating ([6]; 125 g ai/ha Postemergence) | Horseweed plant response rating ([7]; 31 g ai/ha Postemergence) | Plant response rating (0 to 100 scale), Horseweed ([7]; 125 g ai/ha Postemergence) | Plant response rating, Barnyardgrass [8] | Corn plant response rating ([3]; 125 g ai/ha Postemergence) | Goosegrass plant response rating ([4]; 125 g ai/ha Postemergence) | Horseweed plant response rating ([7]; 125 g ai/ha Postemergence) |
| --- | --- | --- | --- | --- | --- | --- | --- | --- | --- | --- | --- | --- | --- | --- | --- | --- | --- | --- |
| Cc1c(NS(=O)(=O)C(F)(F)F)cc(N2CCCC(OC3CCC3)C2=O)c(C)c1F (centres unmarked) [Compound 36] | 100 | 100 | 90 | 90 | 0 | 20 | 30 | 90 | 30 | 70 | 40 | 90 | 40 | 70 | 0 | – | – | – |
| Cc1c(N2CCCC(OC3CC3)C2=O)cc(N(COC(=O)C(C)(C)C)S(=O)(=O)C(F)(F)F)c(C)c1F (centres unmarked) [Compound 37] | 30 | 70 | 0 | 30 | 10 | 90 | 0 | 90 | 0 | 30 | 60 | 90 | 80 | 80 | 90 | – | – | – |
| CC(=O)N(c1cc(N2CCC(OC3CC3)C2=O)c(C)cc1Cl)S(=O)(=O)C(F)(F)F (centres unmarked) [Compound 38] | 80 | 100 | 80 | 90 | 80 | 90 | 30 | 90 | 50 | 80 | 80 | 90 | 90 | 100 | 0 | – | – | – |
| COC(=O)N(c1cc(N2CCC(OC3CC3)C2=O)c(C)cc1Cl)S(=O)(=O)C(F)(F)F (centres unmarked) [Compound 40] | 90 | 100 | 70 | 90 | 80 | 100 | 50 | 90 | 30 | 90 | 60 | 80 | 80 | 80 | 0 | – | – | – |
| Cc1cc(C)c(N2CCC(OCC3CC3(F)F)C2=O)cc1NS(=O)(=O)C(F)(F)F (centres unmarked) [Compound 41] | 100 | 100 | 60 | 100 | 40 | – | 90 | – | 50 | 90 | 50 | 70 | 70 | – | 15 | 90 | 90 | 100 |
| Cc1cc(C)c(N2CCC(OCC3CCCO3)C2=O)cc1NS(=O)(=O)C(F)(F)F (centres unmarked) [Compound 42] | 20 | 90 | 0 | 90 | 20 | – | 40 | – | 50 | 70 | 40 | 90 | 20 | – | 0 | 90 | 90 | 80 |
| Cc1cc(C)c(N2CCC(OCC3CCC3)C2=O)cc1NS(=O)(=O)C(F)(F)F (centres unmarked) [Compound 43] | 80 | 100 | 10 | 90 | 40 | – | 20 | – | 40 | 90 | 50 | 90 | 30 | – | 25 | 90 | 90 | 60 |
| Cc1c(NS(=O)(=O)C(F)(F)F)cc(N2CCC(OC3CCC3)C2=O)c(C)c1C (centres unmarked) [Compound 45] | 50 | 90 | 50 | 100 | 20 | – | 70 | – | 70 | 90 | 50 | 80 | 30 | – | 95 | 90 | 90 | 90 |
| Cc1c(N2CCC(OC3CCC3)C2=O)cc(N(C(=O)OCC(C)C)S(=O)(=O)C(F)(F)F)c(C)c1C (centres unmarked) [Compound 48] | 60 | 100 | 30 | 70 | 0 | – | 0 | – | 30 | 70 | 30 | 80 | 70 | – | 80 | 50 | 40 | 90 |
| Cc1c(N2CCC(OC3CC3)C2=O)cc(N(COC(=O)C(C)(C)C)S(=O)(=O)C(F)(F)F)c(C)c1C (centres unmarked) [Compound 49] | 40 | 100 | 0 | 40 | 50 | – | 20 | – | 10 | 50 | 70 | 90 | – | – | 100 | 100 | 80 | 100 |
| Cc1c(N2CCC(OC3CCC3)C2=O)cc(N(COC(=O)C(C)(C)C)S(=O)(=O)C(F)(F)F)c(C)c1C (centres unmarked) [Compound 51] | 40 | 100 | 0 | 30 | 0 | – | 0 | – | 10 | 60 | 60 | 80 | 60 | – | 100 | 60 | 20 | 90 |
| Cc1cc(C)c(N2CCC(OCC3CCC3(F)F)C2=O)cc1NS(=O)(=O)C(F)(F)F (centres unmarked) [Compound 52] | 0 | 80 | 30 | 50 | 0 | – | 0 | – | 0 | 40 | 40 | 70 | 80 | – | 20 | 60 | 70 | 90 |
| Cc1cc(C)c(N(COC(=O)C(C)(C)C)S(=O)(=O)C(F)(F)F)cc1N1CCC(OCC2CC2)C1=O (centres unmarked) [Compound 53] | 60 | 100 | 20 | 40 | 20 | – | 60 | – | 40 | 70 | 70 | 90 | 80 | – | 40 | 60 | 90 | 90 |
| Cc1cc(C)c(N(COC(=O)C(C)(C)C)S(=O)(=O)C(F)(F)F)cc1N1CCC(OCC2CC2(F)F)C1=O (centres unmarked) [Compound 54] | 0 | 90 | 0 | 30 | 0 | – | 60 | – | 0 | 50 | 50 | 80 | 70 | – | 45 | 80 | 90 | 90 |
| Cc1cc(C)c(N(COC(=O)C(C)(C)C)S(=O)(=O)C(F)(F)F)cc1N1CCC(OCC2CC(F)(F)C2)C1=O (centres unmarked) [Compound 55] | 20 | 60 | 0 | 0 | 0 | – | 40 | – | 0 | 40 | 50 | 80 | 80 | – | 50 | 70 | 90 | 80 |
